Among the data in PubChem BioAssay (NCI) are TGI and GI50 values, retold here.

Structures are written as SMILES. Several values for one entry are separate records, joined by “and”; a condition that tells them apart may be missing. Identical values can stand only once.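 How tested: cells in 96-well plates exposed to compound for 48 hours at five concentrations. The concentration for 50% growth inhibition is given as GI50. TGI denotes the concentration required for complete inhibition of growth.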

What all share (assay): inhibition of tumour cell growth, NCI panel, 48 h
In assay [1] the test system is NCI-H460 lung.
Assay [2] relates to HCT-15 colon.
For assay [3], the system named is A549 NSCLC.
The subject of assay [4] is HL-60(TB) leukemia.
The test system of assay [5] is RPMI-8226 leukemia.
For assay [6], the system named is HOP-92 NSCLC.
Assay [7] deals with RXF 393 renal.
Assay [8] concerns SNB-19 CNS.
The test system of assay [9] is M14 melanoma.
In assay [10] the test system is UO-31 renal.

With `C/C=C/[P+](c1ccccc1)(c1ccccc1)c1ccccc1`, the TGI was 28.3 µM in [1]; over 100 µM in [2]; over 100 µM in assay [3]; 2.78 µM in assay [4]; 0.898 µM in assay [5]; 6.81 µM in assay [6]. Also, the TGI in assay [7] was found to be 41.6 µM; in [8], 15 µM; in assay [9] it was 27.2 µM; in assay [10], 88.6 µM.
Consider `O=c1oc2ccccc2c(Nc2ccc3c(c2)S(=O)(=O)c2ccccc2O3)c1[N+](=O)[O-]`, for which the TGI in assay [1] was 91.7 µM; in [2] it was over 100 µM; in assay [3], over 100 µM; in assay [4], 59.2 µM; in assay [5] it was 59.8 µM; in assay [6], 55.9 µM. Besides, the TGI in assay [7] was 51.2 µM; in assay [8] it was over 100 µM; in assay [9], over 100 µM; in assay [10] it was 99.4 µM.
Turning to `NC(N)=N/N=C/c1c(-c2ccccc2)nc2n1ccc1nc(-c3ccccc3)c(/C=N/N=C(N)N)n12`, the TGI in [1], in assay [2], in assay [3], in assay [4], in [5] and in [6] was over 100 µM each time. Further, the TGI in assay [7], in assay [8], in assay [9] and in assay [10] was over 100 µM throughout.
As to `C[C@@H]1CC[C@H]2C(COCCOCC3=C(C(F)(F)F)O[C@@H]4O[C@@]5(C)CC[C@H]6[C@H](C)CC[C@@H]3[C@@]46OO5)=C(C(F)(F)F)O[C@@H]3O[C@@]4(C)CC[C@@H]1[C@]32OO4`, the GI50 is under 0.0202 µM in [1]; 0.0264 µM in assay [2]; under 0.0332 µM in assay [3]; under 0.0213 µM in assay [4]; under 0.0139 µM in [5]; 0.0679 µM in assay [6]. Further, the GI50 was over 100 µM in assay [7], 0.557 µM in assay [9] and 0.186 µM in assay [10]. The TGI in assay [1] is over 100 µM; in assay [2] it was over 13.8 µM; in assay [3], over 100 µM; in assay [6], over 100 µM; in assay [7], over 100 µM; in assay [8], over 100 µM. The TGI in assay [9] and in assay [10] was over 100 µM throughout.
For `CC1=C2C(=O)c3ccccc3C(=O)[C@H]2[C@H]2CCO[C@H]2O1`, the TGI was 45.1 µM in assay [1]; 86 µM in assay [2]; over 100 µM in assay [3]; 61.1 µM in [4]; 70.4 µM in assay [5]; 42.3 µM in [6]. The TGI in assay [7] is 31.3 µM; in assay [8] it was over 100 µM; in [9] it was 40.2 µM; in assay [10], 35.7 µM.
Turning to `O=S(=O)(Sc1ccc(Cl)cc1)c1ccc(Cl)cc1`, the TGI in assay [1] stood at 37.4 µM; in assay [2], 40.2 µM; in [3], 32.7 µM; in assay [4], 33 µM; in [5], 60.5 µM; in assay [6], 42.1 µM. The TGI in assay [7] was found to be 30.1 µM; in [8] it was 65 µM; in [9], 32.5 µM; in assay [10] it was 23.9 µM.
Take `CN1CCCCC1CCN1CCCCC1` (centres undefined): the TGI in assay [1], in assay [2], in assay [3], in [4], in assay [5] and in assay [6] was over 100 µM in each case. The TGI in [7], in assay [8], in assay [9] and in assay [10] was over 100 µM each time.
On to `Cc1c2cc[n+](CCN3CCCCC3)cc2c(C)c2c1[nH]c1ccc(O)cc12`, for which the GI50 was 0.523 µM in assay [1]; 3.67 µM in [4]; 1.74 µM in assay [5]; 4.34 µM in assay [6]; 3.09 µM in assay [7]; 1.96 µM in assay [8]. Further, in assay [10], the GI50 was 9.25 µM. Further, the TGI in assay [1] was 10 µM and > 32.8 µM; in assay [2], 75 µM and > 100 µM; in [3] it was 34.7 µM and 27.8 µM; in assay [4], 26.5 µM and > 40.4 µM; in [5], 23.3 µM and 11.6 µM; in assay [6], 46.6 µM and 42 µM. In addition, the TGI is 23.6 µM and 16 µM in assay [7]; 10.2 µM and 29.1 µM in [8]; 50.4 µM in assay [9]; 69.9 µM and 61.2 µM in assay [10].
